Consider 79 molecules from paper PMC12040169 (PLOS Biology, 2025).

A short description of this series: in vitro. The settings on record: human, hela cells, % viability.

The viability is a read-out of living cells in per cent, often relative to untreated cells.

In the case of `COc1ncccc1C(=O)Nc1c(C)noc1C` [CBK200307], the viability at 28.5 h, 10 µM is 103%.
`Cc1ccccc1NC(=O)c1ccccc1Cl` [CBK116485]: the viability at 28.5 h, 10 µM is 104%.
For `O=C(c1cncnc1)N1CCc2ccccc21` [CBK200272], the viability at 28.5 h, 10 µM was determined as 102%.
As for `Cc1ccc(C#N)c(S(=O)(=O)Nc2cc(N3C[C@@H](C)N[C@@H](C)C3)c3occc3c2)c1` [CBK034756C], the figure is 89.7%; as for `Cc1nc2c(C(=O)NC3CCOCC3)cnn2c(C)c1Cc1cccc(Br)c1` [CBK165011], 92.3%.
For `NS(=O)(=O)c1ccc(C(=O)N2CCC3(CCN(C(=O)c4ccoc4)C3)C2)cc1` (stereo not shown) [CBK131736], the viability at 28.5 h, 10 µM was found to be 95.2%.
As for `Cc1cccc(NC(=O)C(Cc2ccccc2)C(=O)Nc2cccc(C)c2)c1` [CBK266899], the figure is 91.9%.
Consider `CCOC(=O)CCCNC(=O)N1CCCC(C(=O)O)C1` (stereo not shown) [CBK161374], for which the viability at 28.5 h, 10 µM worked out at 83.5%.
As to `Cc1cc(C(=O)Nc2nnc(Cc3ccccc3)s2)c2ccccc2n1` [CBK295607], the viability at 28.5 h, 10 µM worked out at 93.3%.
In the case of `CC(C)[C@@H](CO)Nc1cncc(-c2cccc3ccccc23)n1` [CBK065566], the viability at 28.5 h, 10 µM was 98.4%.
Consider `Cc1ccc(Oc2c([N+](=O)[O-])ncn2C)c(Br)c1` [CBK002819], for which the viability at 28.5 h, 10 µM was found to be 99.2%.
For the molecule `Cc1cc(C)c2c(CC(=O)N(C)CCN(C)C)c(C)[nH]c2c1` [CBK282732], the viability at 28.5 h, 10 µM is 83.6%.
On to `COc1ccc(Cl)cc1C(=O)Nc1cc(C)c2c(=O)oc3ccccc3c2n1` [CBK291196], for which the viability at 28.5 h, 10 µM was found to be 108%.
With `O=C1NC(=O)C(CC(=O)N2CCC3(CC2)CC(=O)c2cc(Cl)ccc2O3)N1` (stereo not shown) [CBK156485], the viability at 28.5 h, 10 µM was found to be 107%.
Consider `Cc1ccc(CNC(=O)NCCc2cccs2)cc1` [CBK044960], for which the viability at 28.5 h, 10 µM is 88.5%.
As for `CC(=O)N1CCC(C(=O)NC(=O)NC2CCCCC2)CC1` [CBK034847], the viability at 28.5 h, 10 µM came out at 99.4%.
As for `Cc1ccc(C(CC(=O)O)NC(=O)c2ccc(S(=O)(=O)N3CCCC(C)C3)cc2)cc1` (stereo not shown) [CBK295345], the figure is 95.7%; as for `Cc1n[nH]c(C)c1CNC(=O)c1[nH]c2c(Cl)cccc2c1C` [CBK282534], 96%; as for `O=C(CNC1CCN(Cc2ccccc2)CC1)Nc1ccc(Cl)cc1C(=O)c1ccccc1Cl` [CBK074770], 107%.
Turning to `Cc1ccc(-c2n[nH]c(=S)n2CCC(=O)N2CCC(c3c[nH]c4ccccc34)CC2)cc1` [CBK296739], the viability at 28.5 h, 10 µM came out at 86.8%.
With `CC1=CC(c2ccc(Cl)cc2)n2nc(NC(=O)CCC(=O)O)nc2N1` (stereo not shown) [CBK264331], the viability at 28.5 h, 10 µM was determined as 100%.
Consider `O=C1CCC(=O)N1CCOc1nccnc1-c1ccc2c(c1)OCO2` [CBK106698], for which the viability at 28.5 h, 10 µM stood at 92.3%.
As to `CCC(CO)Nc1nccnc1-c1cccc(F)c1` (stereo not shown) [CBK036775], the viability at 28.5 h, 10 µM came to 108%.
In the case of `CCn1c(C)nc2cc(S(N)(=O)=O)ccc21` [CBK260950] it was 92.1%; in that of `NC1=NN2C(=C(c3ccc(O)c(C(=O)O)c3)NN2c2ccccc2)N1` [CBK025631], 95.2%; in that of `CCN1CCN(c2ccc(NC(=O)c3cc(-n4cnnc4)ccc3Cl)cc2Cl)CC1` [CBK269343], 88.1%.
Regarding `O=C1C[C@@H]2CCN(C(=O)COc3ccccc3)C[C@@H]2CCN1Cc1cccnc1` [CBK288793], the viability at 28.5 h, 10 µM amounted to 82%.
In the case of `O=c1[nH]c2ccccc2cc1CNc1ccc(F)cc1F` [CBK281933] it was 84.1%.
With `C[C@@H](c1ccccc1)n1c(=O)[nH]c2ncc(-c3ccco3)nc21` [CBK064168], the viability at 28.5 h, 10 µM came out at 112%.
In the case of `CCc1ccc(CNC(=O)Cn2nnc(-c3ccc(CN4CCC(C)CC4)nc3SC)n2)cc1` [CBK156205T] it was 90.3%.
With `Cc1cc(NS(=O)(=O)c2cccc3nonc23)n(C)n1` [CBK067247], the viability at 28.5 h, 10 µM was 93.7%.
On to `O=[N+]([O-])c1ccc(Oc2ccccc2F)cc1` [CBK002532], for which the viability at 28.5 h, 10 µM turned out to be 93.9%.
For the molecule `NS(=O)(=O)c1ccc(NC(=O)CN2CCC(Cc3ccccc3)CC2)cc1` [CBK266161], the viability at 28.5 h, 10 µM amounted to 98.6%.
As to `Cn1c(SCc2c(Cl)cccc2[N+](=O)[O-])nnc1-c1ccc(NC(=O)c2ccccc2Cl)cc1` [CBK264983], the viability at 28.5 h, 10 µM was determined as 81.1%.
In the case of `CCCC1(C)NC(=O)N(Cc2coc(-c3cccs3)n2)C1=O` (stereo not shown) [CBK305594] it was 100%.
On to `Cc1ccc(OCCn2c(SCCC(=O)O)nc3ccccc32)cc1` [CBK262561], for which the viability at 28.5 h, 10 µM is 84.7%.
In the case of `O=C(CSc1nnc2scc(-c3ccccc3)n12)Nc1nsc(-c2ccc(Cl)cc2)n1` [CBK266576] it was 95.4%.
As to `COc1ccccc1CN(C)CCc1ccccn1` [CBK261741G], the viability at 28.5 h, 10 µM was found to be 87.2%.
Consider `CC(C)C(=O)N1CC2(CCN(Cc3ncc[nH]3)CC2)c2ccccc21` [CBK126731], for which the viability at 28.5 h, 10 µM came out at 109%.
In the case of `COc1ccc(N(CCC#N)S(=O)(=O)c2cccc3nsnc23)cc1` [CBK025851] it was 90.7%; in that of `Cc1ccc(C)c(S(=O)(=O)NCC(=O)Nc2nsc(-c3ccccc3)n2)c1` [CBK267304], 97.4%; in that of `COc1ccc(NC(=O)CSc2cc(-n3cccn3)ncn2)cc1` [CBK287819], 116%.
Consider `CN1C(=O)/C(=C2\SC(=S)N(C(CC(=O)O)C(=O)O)C2=O)c2ccccc21` (stereo not shown) [CBK261012], for which the viability at 28.5 h, 10 µM was determined as 107%.
Turning to `Nc1cccc(-c2cc(Nc3cccc(OCc4ccccc4)c3)ncn2)c1` [CBK090915], the viability at 28.5 h, 10 µM is 113%.
Turning to `CC(C)CC(=O)N[C@@H](C)Cn1nc(-c2cccs2)oc1=O` [CBK284336], the viability at 28.5 h, 10 µM stood at 82.4%.
Consider `CCCc1ccc(S(=O)(=O)N2CCN(CC(=O)Nc3cc(C(C)C)no3)CC2)cc1` [CBK295629], for which the viability at 28.5 h, 10 µM is 114%.
As for `CNC(=S)NCc1nc(-c2ccc(C)cc2)no1` [CBK288418], the viability at 28.5 h, 10 µM came to 97.3%.
As for `Cc1cc(C)cc(Oc2coc3c(CN4CCOCC4)c(O)ccc3c2=O)c1` [CBK263908], the figure is 89.7%; as for `CN1CC(C(=O)NCC(c2ccccc2)N2CCCCCC2)CC1=O` (stereo not shown) [CBK282008], 105%; as for `CC(C)N1CCN(Cc2c(C(F)(F)F)[nH]c3ncccc23)CC1` [CBK285354], 88.3%.
As for `O=C(CSc1nnnn1C1CC1)c1cc2ccccc2o1` [CBK297158], the figure is 90.7%; as for `CCc1nnsc1C(=O)N1CCc2[nH]c3c(C)cccc3c2C1` [CBK281655], 86.2%; as for `O=C(C1CCCN(CC(O)c2cccs2)C1)N1CCCCCC1` (stereo not shown) [CBK282117], 100%.
On to `CCOC(=O)c1cccc(-n2cc(-c3ccc(Br)cc3F)nn2)c1` [CBK113153], for which the viability at 28.5 h, 10 µM was determined as 92.3%.
Consider `CCn1c2ccccc2c2cc(NC(=O)CN(C)S(=O)(=O)c3ccc(C)cc3)ccc21` [CBK266756], for which the viability at 28.5 h, 10 µM was determined as 92.8%.
On to `Cn1c(CN2CCN(c3ccc(C#N)cn3)CC2)nnc1C1CC1` [CBK304781], for which the viability at 28.5 h, 10 µM was found to be 92.5%.
`O=C1CCCC2=C1C(c1ccc(OCc3ccccc3)cc1)c1c([nH][nH]c1=O)N2` (stereo not shown) [CBK288149]: the viability at 28.5 h, 10 µM worked out at 92.1%.
`O=C(CCCn1nnc2ccccc2c1=O)NCc1cccc(Cl)c1` [CBK294446]: the viability at 28.5 h, 10 µM was determined as 82.8%.
With `CCc1ccc(CNC(=O)Cn2cnc(-c3ccc(CN4CCC(C)CC4)cc3)c2)cc1` [CBK158710T], the viability at 28.5 h, 10 µM turned out to be 100%.
Turning to `CC(=O)N[C@@H](C(=O)N1CC[C@@H]2NC(=O)[C@@H](Cc3ccccc3)NC(=O)C3(C/C=C/C[C@H]2C1)CCOCC3)C(C)C` [CBK292198], the viability at 28.5 h, 10 µM stood at 97.1%.
On to `OC(CNCc1cccs1)COc1cccc2c1CCCC2` (stereo not shown) [CBK002239], for which the viability at 28.5 h, 10 µM was determined as 96.1%.
In the case of `CC(C)(C)OC(=O)n1cnc(CC#N)c1` [CBK000202] it was 83.1%; in that of `CC(C)c1ccc(/C=C/C(=O)NCc2ccc(C#N)cc2)cc1` [CBK149642], 91%; in that of `CCOc1ccc(-c2csc(NC(=O)CC)n2)cc1` [CBK287764], 92.5%.
As for `Clc1ccc(COc2nccnc2OCc2cccnc2N2CCOCC2)cc1Cl` [CBK161610], the figure is 88.8%; as for `COc1ccc(C(C)C)cc1-c1nccnc1NC1CCC(N)CC1` (stereo not shown) [CBK036703], 108%.
For `Cc1cc(=O)[nH]c(-n2nc(C)cc2NC(=O)c2ccccc2C)n1` [CBK287654], the viability at 28.5 h, 10 µM came to 92.5%.
In the case of `O=C(NC(=O)C1CCN(CCc2cccc(C(F)(F)F)c2)CC1)Nc1cccc2ccccc12` [CBK035070] it was 92.2%; in that of `FC(F)(F)c1ccc(CN2CCCN(c3cc(OC4CCCCC4)ncn3)CC2)cc1` [CBK083277T], 112%.
As for `Cc1cc(C)n(CCC(=O)N2CCC(c3ccncc3)CC2)n1` [CBK283529], the viability at 28.5 h, 10 µM turned out to be 94.1%.
As for `CC1(C)CC(=O)C(C(=S)Nc2ccccc2)=C(O)C1` [CBK288395], the figure is 95.3%; as for `c1ccc2cc(-c3cn4ccnc4c(NC4CCOCC4)n3)ccc2c1` [CBK066290], 96.1%.
Turning to `O=C(CCn1c(C(F)F)cc2cccnc21)NC1CCCC1` [CBK285063], the viability at 28.5 h, 10 µM was 95.5%.
On to `Cc1c(-c2cncn2CC(=O)NC(C)(C)C)[nH]c2ccccc12` [CBK281911], for which the viability at 28.5 h, 10 µM came to 87.5%.
In the case of `CC(=O)Nc1cccc(OCC(=O)Nc2ccc(C)c(C)c2)c1` [CBK265429], the viability at 28.5 h, 10 µM turned out to be 95.9%.
As for `O=C1N=C(NC2C3CC4CC(C3)CC2C4)OC12CCN(CCC(F)(F)F)CC2` (stereo not shown) [CBK115640], the viability at 28.5 h, 10 µM was 91.4%.
For the molecule `COc1ccccc1CN(Cc1cccs1)C(=O)Cn1cnnn1` [CBK305866], the viability at 28.5 h, 10 µM was 96.5%.
For `CCCc1nnc2sc(C3CCC(=O)N(C(C)C)C3)nn12` (stereo not shown) [CBK306942], the viability at 28.5 h, 10 µM was found to be 108%.
In the case of `COc1cccc2c1OC(c1cccnc1)N1N=C(c3cccc(O)c3)CC21` (stereo not shown) [CBK287747], the viability at 28.5 h, 10 µM was determined as 104%.
